From patent US11318157B2, “6-6 bicyclic aromatic ring substituted nucleoside analogues for use as PRMT5 inhibitors” (Janssen Pharmaceutica NV, priority 2015, dated 2022)
Where two headings read alike, the source gives them in different places.

How the values were obtained:
PRMT5-MEP50 enzyme [1] = target: T1, PRMT5-MEP50 enzyme (Homo sapiens, UniProt O14744); assay: In vitro assay 1a: high throughput mass spectrometer assay of SAH formation, 10 nM enzyme, 60 min; assay type: biochemical; conditions: averaged values, PRMT5-MEP50, 10 nM enzyme, read-out: pIC50 Assay 1a (converted)
T1 construct: One virus expresses full length human PRMT5 with Flag-tag at N-terminus; Flag (N); purchased Charles River (Argenta); host or cells: insect cells (Sf9), baculovirus co-infection
Procedure, shortened: (§1)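 Flag-PRMT5/His-MEP50 complex from Sf9 cells, with 1 μM SAM and 0.3 μM full-length histone H2A in pH 8.5 Tris buffer, at 30 °C; 10 nM enzyme for 60 min (1a) or 1.25 nM for 120 min (1b). Formic acid-quenched SAH read by RapidFire MS/MS; 11-point IC50 with Hill fit.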

PRMT5-MEP50 enzyme [2] = target: T1, PRMT5-MEP50 enzyme; assay: In vitro assay 1b: high throughput mass spectrometer assay of SAH formation, 1.25 nM enzyme, 120 min; assay type: biochemical; conditions: averaged values, PRMT5-MEP50, 1.25 nM enzyme, 120 min; for IC50: read-out: pIC50 Assay 1b (converted)
Procedure, shortened: as §1

[3] = tested on: nuclear symmetric Arginine dimethylation in A549 cells; assay: PD assay (assay 2): inhibition of nuclear symmetric Arginine dimethylation (SYM10 immunohistochemistry), 48 h; assay type: cell-based; conditions: for IC50: Homo sapiens; for pIC50 Assay 2: averaged values
Procedure, shortened: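 Cells seeded at 400/well overnight, then treated 48 h at 37 °C, final DMSO 0.2%. Fixed and stained with SYM10 antibody plus Alexa 488 secondary, Hoechst and CellMask, then imaged on Opera. Normalized to DMSO (high) and 10 μM reference compound (low); averaged pIC50 reported.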

[4] = A549, averaged values, PD assay, A549 cells, symmetric Arginine dimethylation, read-out: pIC50 Assay 2 (converted)
[5] = A549, read-out: pIC50 Assay 2 (converted)
[6] = PD assay, A549 cells, symmetric Arginine dimethylation

T1 sequence (O14744 whole entry): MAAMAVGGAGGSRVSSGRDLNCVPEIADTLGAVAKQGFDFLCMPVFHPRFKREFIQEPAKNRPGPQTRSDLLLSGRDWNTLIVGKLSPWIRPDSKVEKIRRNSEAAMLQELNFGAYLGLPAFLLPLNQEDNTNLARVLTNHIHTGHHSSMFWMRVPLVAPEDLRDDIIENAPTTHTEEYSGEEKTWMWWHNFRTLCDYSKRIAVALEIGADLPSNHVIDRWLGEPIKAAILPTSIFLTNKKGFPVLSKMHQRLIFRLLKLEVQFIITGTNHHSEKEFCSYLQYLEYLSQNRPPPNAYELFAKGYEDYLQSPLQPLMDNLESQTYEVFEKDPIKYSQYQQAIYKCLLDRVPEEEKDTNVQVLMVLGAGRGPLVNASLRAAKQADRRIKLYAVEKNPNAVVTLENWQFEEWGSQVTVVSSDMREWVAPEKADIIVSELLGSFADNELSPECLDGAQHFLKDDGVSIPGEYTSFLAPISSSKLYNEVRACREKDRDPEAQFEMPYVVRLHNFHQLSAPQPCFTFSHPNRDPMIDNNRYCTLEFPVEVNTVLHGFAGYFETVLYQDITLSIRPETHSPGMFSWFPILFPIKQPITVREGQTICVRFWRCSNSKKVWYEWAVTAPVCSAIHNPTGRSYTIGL
T1 sequence (Q9BQA1 whole entry partner): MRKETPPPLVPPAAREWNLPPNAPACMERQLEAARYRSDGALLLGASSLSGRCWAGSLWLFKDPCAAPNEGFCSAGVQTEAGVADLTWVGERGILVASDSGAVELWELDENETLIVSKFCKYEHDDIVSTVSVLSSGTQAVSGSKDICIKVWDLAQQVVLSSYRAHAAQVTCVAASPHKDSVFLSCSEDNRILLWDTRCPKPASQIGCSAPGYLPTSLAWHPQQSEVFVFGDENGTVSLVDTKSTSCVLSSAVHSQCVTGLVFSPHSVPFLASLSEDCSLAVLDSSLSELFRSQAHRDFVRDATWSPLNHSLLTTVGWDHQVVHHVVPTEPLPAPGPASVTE

| IC50 (PRMT5-MEP50 enzyme [1]) [nM] | IC50 (PRMT5-MEP50 enzyme [2]) [nM] | IC50 [3, 4] [nM] | pIC50 Assay 1b (PRMT5-MEP50 enzyme [2]) | pIC50 Assay 2 [3, 6] | Compound | IC50 [3, 5] [nM] |
| --- | --- | --- | --- | --- | --- | --- |
| 1580 | 3160 | > 20000 | – | – | COc1ccc2ccc(OC[C@H]3O[C@@H](n4ccc5c(N)ncnc54)[C@H](O)[C@@H]3O)cc2n1 [Compound 19] | – |
| 2510 | 1260 | > 10000 | – | – | Nc1ccc2ccc(OC[C@H]3O[C@@H](n4ccc5c(O)ncnc54)[C@H](O)[C@@H]3O)cc2n1 [Compound 208] | – |
| 200 | 501 | 200 | – | – | Nc1ncnc2c1ccn2[C@@H]1O[C@H](COc2cc3ncc(Br)cc3cc2C(F)(F)F)[C@@H](O)[C@H]1O [Compound 96] | – |
| 5.01 | 39.8 | 31.6 | – | – | Cc1cnc2cc(CC[C@H]3O[C@@H](n4ccc5c(N)ncnc54)[C@H](O)[C@@H]3O)ccc2c1 [Compound 123] | – |
| 1 | 15.8 | 31.6 | – | – | CC(C)(C)Nc1ccc2ccc(CC[C@H]3C[C@@H](n4ccc5c(N)ncnc54)[C@H](O)[C@@H]3O)cc2n1 [Compound 150] | – |
| 3.98 | 50.1 | 126 | – | – | O[C@@H]1[C@H](O)[C@@H](CCc2ccc3ccc(NCC4CC4)nc3c2)O[C@H]1n1ccc2cncnc21 [Compound 168] | – |
| 5.01 | 10 | 5.01 | – | – | Cc1cnc2cc(CC[C@H]3C[C@@H](n4ccc5c(N)ncnc54)[C@H](O)[C@@H]3O)ccc2c1 [Compound 113] | – |
| 1000 | 1580 | 7940 | – | – | Nc1ncnc2c1ccn2[C@@H]1O[C@H](COc2ccc3cccnc3n2)[C@@H](O)[C@H]1O [Compound 17] | – |
| 2000 | 3160 | > 20000 | – | – | NC(=O)c1ccc2ccc(OC[C@H]3O[C@@H](n4ccc5c(N)ncnc54)[C@H](O)[C@@H]3O)cc2n1 [Compound 245] | – |
| 79.4 | 316 | ~10000 | – | – | Nc1ncnc2c1ccn2[C@@H]1O[C@H](COc2ccc3ccc(O)nc3c2)[C@@H](O)[C@H]1O [Compound 18] | – |
| 1580 | 3980 | > 10000 | – | – | Nc1ncnc2c1ccn2[C@@H]1O[C@H](COc2ccc3cnccc3c2)[C@@H](O)[C@H]1O [Compound 12] | – |
| 2000 | 5010 | > 10000 | – | – | Nc1ncnc2c1ccn2[C@@H]1O[C@H](COc2cccc3ncccc23)[C@@H](O)[C@H]1O [Compound 5] | – |
| 1260 | 1580 | 5010 | – | – | Cc1ccc2ccc(OC[C@H]3O[C@@H](n4ccc5c(N)ncnc54)[C@H](O)[C@@H]3O)cc2n1 [Compound 21] | – |
| 12.6 | 20 | 39.8 | – | – | Nc1ncnc2c1ccn2[C@@H]1C[C@H](CCc2ccc3cc(Cl)cnc3c2)[C@@H](O)[C@H]1O [Compound 58] | – |
| 0.794 | 6.31 | 3.16 | – | – | O[C@@H]1[C@@H](CCc2ccc3ccc(NCc4ccc(Cl)cc4)nc3c2)C[C@@H](n2ccc3cncnc32)[C@@H]1O [Compound 171] | – |
| 1000 | 631 | 5010 | – | – | Nc1ncnc2c1ccn2[C@@H]1O[C@H](COc2cc(C(F)(F)F)c3cccnc3c2)[C@@H](O)[C@H]1O [Compound 37] | – |
| 7.94 | – | – | 7.8 | 7.4 | Nc1ncnc2c1ccn2[C@@H]1C[C@H](CNc2ccc3cc(Br)cnc3c2)[C@@H](O)[C@H]1O [Compound 54a] | – |
| 0.501 | 3.98 | 3.16 | – | – | CNc1ccc2ccc(CC[C@H]3C[C@@H](n4ccc5c(C)ncnc54)[C@H](O)[C@@H]3O)cc2n1 [Compound 176] | – |
| 7.94 | 63.1 | 200 | – | – | CNc1ccc2ccc(CC[C@H]3O[C@@H](n4ccc5c(Cl)ncnc54)[C@H](O)[C@@H]3O)cc2n1 [Compound 128] | – |
| 1 | 5.01 | 1 | – | – | O[C@@H]1[C@@H](CCc2ccc3ccc(NCC4CC4)nc3c2)C[C@@H](n2ccc3cncnc32)[C@@H]1O [Compound 166] | – |
| 1 | 6.31 | ~2.82 | – | – | Nc1ncnc2c1ccn2[C@@H]1O[C@H](CCc2ccc3ccc(NCc4ccc(Cl)cc4)nc3c2)[C@@H](O)[C@H]1O [Compound 135] | – |
| 2510 | > 100000 | – | – | ~5.14 | CC(Oc1ccc2cccnc2c1)[C@H]1O[C@@H](n2ccc3c(N)ncnc32)[C@H](O)[C@@H]1O (single isomer, unassigned) [Compound 68] | – |

| IC50 (PRMT5-MEP50 enzyme [1]) [nM] | IC50 (PRMT5-MEP50 enzyme [2]) [nM] | IC50 [3, 4] [nM] | pIC50 Assay 1b (PRMT5-MEP50 enzyme [2]) | pIC50 Assay 2 [3, 6] | Compound | IC50 [3, 5] [nM] |
| --- | --- | --- | --- | --- | --- | --- |
| 1.26 | 7.94 | 15.8 | – | – | Nc1ncnc2c1ccn2[C@@H]1O[C@H](COc2ccc3ccc(NCC4CC4)nc3c2)[C@@H](O)[C@H]1O [Compound 142] | – |
| 200 | 501 | 1260 | – | – | Cc1cn([C@@H]2O[C@H](COc3ccc4cccnc4c3)[C@@H](O)[C@H]2O)c2ncnc(N)c12 [Compound 82] | – |
| 0.501 | 5.01 | ~1.86 | – | – | Cc1ncnc2c1ccn2[C@@H]1C[C@H](CCc2ccc3ccc(NCC4CC4)nc3c2)[C@@H](O)[C@H]1O [Compound 190] | – |
| 2000 | 5010 | > 20000 | – | – | Nc1ncnc2c1ccn2[C@@H]1C[C@H](Cc2ccc3cccnc3c2)[C@@H](O)[C@H]1O [Compound 66] | – |
| 200 | 398 | 794 | – | – | Nc1ncnc2c1ccn2[C@@H]1O[C@H](COc2cc3ncccc3cc2C(F)(F)F)[C@@H](O)[C@H]1O [Compound 38] | – |
| > 10000 | 7940 | > 10000 | – | – | COc1ncnc2c1ccn2[C@@H]1O[C@H](CN(C)c2ccc3cc(Br)cnc3c2)[C@@H](O)[C@H]1O [Compound 88] | – |
| 251 | 251 | 31.6 | – | – | Nc1ncnc2c1ccn2[C@@H]1C[C@H](CCc2ccc3cc(Cl)c(NCC4CC4)nc3c2)[C@@H](O)[C@H]1O [Compound 147] | – |
| > 10000 | 7940 | 12600 | – | – | Nc1ncnc2c1ccn2[C@@H]1C[C@H](OCc2ccc3cnccc3c2)[C@@H](O)[C@H]1O [Compound 85] | – |
| 7.94 | 79.4 | 126 | – | – | O[C@@H]1[C@H](O)[C@@H](CCc2ccc3ccc(NCC4CC4)nc3c2)O[C@H]1n1ccc2c(Cl)ncnc21 [Compound 138] | – |
| 0.501 | 5.01 | 6.31 | – | – | Nc1ccc2ccc(OC[C@H]3O[C@@H](n4ccc5cncnc54)[C@H](O)[C@@H]3O)cc2n1 [Compound 163] | – |
| 25.1 | 63.1 | 50.1 | – | – | Nc1ncnc2c1ccn2[C@@H]1C[C@H](COc2ccc3cc(Br)cnc3c2)[C@@H](O)[C@H]1O [Compound 47] | – |
| 251 | 398 | 1260 | – | – | Nc1ncnn2c([C@@H]3O[C@H](COc4ccc5cccnc5c4)[C@@H](O)[C@H]3O)ccc12 [Compound 60] | – |
| 3160 | 2000 | 10000 | – | – | COc1ncnc2c1ccn2[C@@H]1O[C@H](COc2ccc3cc(Br)cnc3c2)[C@@H](O)[C@H]1O [Compound 71] | – |
| 7.94 | 25.1 | 39.8 | – | – | Nc1ncnc2c1ccn2[C@@H]1O[C@H](COc2ccc3cc(Br)cnc3c2)[C@@H](O)[C@H]1O [Compound 2] | – |
| 63.1 | 200 | ~617 | – | – | Nc1nc(Cl)nc2c1ccn2[C@@H]1O[C@H](COc2ccc3cc(Cl)cnc3c2)[C@@H](O)[C@H]1O [Compound 4] | – |
| 1 | 7.94 | 3.16 | – | – | Cc1ncnc2c1ccn2[C@@H]1C[C@H](CCc2ccc3ccc(NCc4ccc(Cl)cc4)nc3c2)[C@@H](O)[C@H]1O [Compound 193] | – |
| 398 | 794 | 398 | – | – | Nc1ncnc2c1ccn2[C@@H]1O[C@H](COc2ccc3c(Cl)c(Cl)cnc3c2)[C@@H](O)[C@H]1O [Compound 35] | – |
| 398 | 1260 | 7940 | – | – | Nc1ncnc2c1ccn2[C@@H]1O[C@H](CCc2ccc3ccncc3c2)[C@@H](O)[C@H]1O [Compound 103] | – |
| 0.501 | 3.98 | < 1.17 | – | – | O[C@@H]1[C@@H](CCc2ccc3ccc(NCc4ccccc4)nc3c2)C[C@@H](n2ccc3cncnc32)[C@@H]1O [Compound 172] | – |
| 0.631 | 10 | 3.16 | – | – | Cc1ncnc2c1ccn2[C@@H]1O[C@H](CCc2ccc3ccc(N)nc3c2)[C@@H](O)[C@H]1O [Compound 192] | – |
| 15.8 | 79.4 | 79.4 | – | – | Nc1ncnc2c1ccn2[C@@H]1C[C@H](CCc2ccc3cnc(NC4CC4)nc3c2)[C@@H](O)[C@H]1O [Compound 145] | – |
| 3160 | 3980 | > 20000 | – | – | COc1cc2c(N)c(C#N)cnc2cc1OC[C@H]1O[C@@H](n2ccc3c(N)ncnc32)[C@H](O)[C@@H]1O [Compound 31] | – |

| Compound | IC50 (PRMT5-MEP50 enzyme [1]) [nM] | IC50 (PRMT5-MEP50 enzyme [2]) [nM] | IC50 [3, 4] [nM] | pIC50 Assay 1b (PRMT5-MEP50 enzyme [2]) | pIC50 Assay 2 [3, 6] | IC50 [3, 5] [nM] |
| --- | --- | --- | --- | --- | --- | --- |
| Nc1ncnc2c1ccn2[C@@H]1C[C@H](CCc2ccc3cccnc3c2)[C@@H](O)[C@H]1O [Compound 56] | 6.31 | 15.8 | – | – | – | 7.94 |
| CNc1ccc2ccc(CC[C@H]3C[C@@H](n4ccc5c(N)ncnc54)[C@H](O)[C@@H]3O)cc2n1 [Compound 126] | 0.501 | 2.51 | – | – | – | 0.316 |
